Results: patent US6664246B2, “Pharmaceutical composition” (MRC Holdings PTY Limited, priority 1999, dated 2003)

Legend:
[1] = Dissolution of 1,25(OH)2D3 in iodised poppy seed oil; assay type: physicochemical; conditions: in one ml of iodised poppy seed oil
Experimental: For example, 2 mg of 1,25(OH)2 D3 can be readily dissolved in one ml of iodised poppy seed oil.

HepG2 cells [2] = test: [3H]thymidine incorporation cell proliferation assay; assay type: cell-based, human
Experimental: (§1) Following exposure of cells to vitamin D3 dissolved in normal or lipiodol (1% v/v) containing media. [^3H]thymidine incorporation assay and the trypan blue exclusion cell count methods were used to determine cell proliferation. To do this, cells were plated in 24 well tissue culture plates at 10^4 cells per well and incubated for 24 h in an incubator at 37° C. with humidified 5% CO2 atmosphere. The, medium was replaced with one containing vitamin D3(10^−11 to 10^−7 M) dissolved in either the normal medium or first dissolved in lipiodol and then mixed thoroughly with the medium to make a final lipiodol concentration of 1% (v/v). For acute dose studies, cells were exposed to one of the two drug containing media for 24 h, which were then replaced with drug free medium for the next four days. Whilst, in chronic treatment, cells were exposed for 5 days to different concentrations of the drug dissolved in one of the media described above. The media were changed on alternate days. At the end of treatment period, cell cultures were assayed for thymidine incorporation by the addition of 0.1μ Ci of [^3H]thymidine to each well for the last 4 h of culture. The amount of radioactivity incorporated into trichloroacetic acid precipitatable material was determined using a β-scintillation counter. Results are plotted as percentage inhibition relative to control. […]

HepG2 cells [3] = test: Trypan blue exclusion cell count assay; assay type: cell-based, human
Experimental: as §1, with “At the end of treatment period, cell cultures were assayed for thymidine incorporation by the addition of 0.1μ Ci of [^3H]thymidine to each well for the last 4 h of culture.” left out, “counter.” for “counter. Results are plotted as percentage inhibition relative to control.”
For the cell count assay, cells were plated in six well plates at a concentration of 5×10^4 cells per well. […] At the end of the treatment period (5 days), cells were trypsinised and counted with a hemocytometer. […]

Novikoff = test: Screening of rat cell lines for responsiveness to vitamin D3; assay type: cell-based; conditions: 10^-11-10^-6 M
Source text: (§2) 2. In order to find an appropriate cell line, which would grow in the rat tumor and also be responsive to vitamin D3, rat cell lines, Novikoff and HTC were screened for responsiveness to vitamin D3(10^−11-10^−6 M).

HTC = test: as above; assay type: cell-based; conditions: 10^-6 M, read-out: inhibition of proliferation
Source text: as §2

[4] = Radiolabelled vitamin D3 levels in liver, tumor and plasma after hepatic artery injection in Novikoff tumor bearing rats; assay type: in vivo, Sprague-Dawley rats; conditions: 1 hour post injection
Experimental: Male 300-350 gr. Sprague-Dawely rats were given a general anaesthetic (halothane) and a lapratomy performed. Then 5×10^6 Novikoff cells suspended in 100 μl of medium was instilled beneath the liver capsule using a 26G3/8-tuberculin needle. The abdominal incision was then closed with gut suture.
Animals were then left for 10 days with food and water available ad libitum and monitored daily to assess health and well being. After this period, animals were randomly allocated to one of the treatment groups (n=6 per group) and lapratomy was performed again. A catheter was inserted into the hepatic artery of the animal, through which radiolabelled vitamin D3 or vehicle injections were carried out. The different experimental groups treated were as follows:
After administration of the drug, the catheter was removed and the incision sutured. Animals were euthanased at 1 hour, 1, and 3 days post drug (or vehicle) administration. Just before euthanasing, 3 ml of blood was drawn through cardiac puncture from each animal.
Post mortem, the liver and the tumor of each animal was excised, weighed and frozen in the freezer until analysis. After tissue homogenization, liver, tumor or plasma was extracted with dichloromethane. The amount of hot vitamin D3 present in each sample was determined using a β-counter.

Row | Structure (SMILES) | amount readily dissolved [1] [mg] | thymidine incorporation compared to control, acute treatment (HepG2 cells [2]; 1 day exposure to drug, then 4 days medium without drug) | thymidine incorporation versus control, chronic treatment (HepG2 cells [2]; 5 days exposure, all concentrations (10^-11 to 10^-7 M)) | cell number, acute treatment (HepG2 cells [3]; 10^-7 M, 1 day exposure, then 4 days drug free) | cell number, chronic treatment (HepG2 cells [3]; 5 days exposure) | responsiveness of cell line to vitamin D3 (Novikoff) | inhibition at 1 µM (HTC) [%] | level of radioactivity in liver, tumor and plasma [4]
1 | C=C1/C(=C\C=C2/CCC[C@]3(C)[C@@H]([C@H](C)CCCC(C)(C)O)CC[C@@H]23)C[C@@H](O)C[C@@H]1O [1,25(OH)2 D3, 1,25-dihydroxycholecalciferol] | 2 | – | – | – | – | – | – | –
2 | C=C1CC[C@H](O)C/C1=C/C=C1\CCC[C@]2(C)[C@@H]([C@H](C)CCCC(C)C)CC[C@@H]12 [vitamin D3, cholecalciferol] | – | did not show a reduction in thymidine incorporation | significant reduction in thymidine incorporation | significant reduction in cell number | dose dependant decrease in call number | non responsive | ~50 | high in all three samples
